From patent US9351944B1, “Malodor eliminating compositions” (TAKASAGO INTERNATIONAL CORPORATION, priority 2008, dated 2016)
“And” between values parts separate entries of the source, which are not always exact repeats. Identical values can stand only once.

Columns and labels:
[1] = Propyl mercaptan chemical suppression by malodor eliminating materials (GC-PFPD); details: OE material 0.2%, malodor material 10 ppm, room temperature 2 hours, triplicate
Experimental: (§1) The selected OE materials were tested for propyl, allyl, and furfuryl mercaptan suppression. 100 μl of 0.01%(w/v) of test malodor material in ethanol, 2 μl of neat flavor oil and 900 μl of deionized water were added into a 4 ml vial and left to sit at room temperature for 2 hours. As a control, ethanol was added instead of test flavor materials. The final concentration of test OE material and malodor material are 0.2% and 10 ppm, respectively. 3 ml of ethanol was added into the resulting vial and the thiol level was analyzed using GC-PFPD. Each material was tested in triplicate. Malodor suppression was calculated as described in the example 1 above.

[2] = Furfuryl mercaptan chemical suppression by malodor eliminating materials (GC-PFPD); details: OE material 0.2%, malodor material 10 ppm, room temperature 2 hours, triplicate
Experimental: as §1

[3] = Methyl mercaptan suppression by Group A and Group B materials alone and combined (synergistic or additive activity); details: in ethanol, room temperature 2 hours
Experimental: The synergistic or additive activity of methyl mercaptan inhibition of malodor eliminating materials was tested. 5-40 μl of 1% (w/v) test OE materials in ethanol was placed into a 2 ml GC vial. Ethanol was added into this vial up to 1000 μl. 2 μl of 0.5%(w/v) of sodium methoxide in deionized water was added into the resulting vial, left to sit at room temperature for 2 hours, and analyzed using Multipurpose sampler-GC-PFPD. As a control, ethanol was added instead of test OE materials. Malodor suppression was calculated as described in Example 1 above.

[4] = Allyl mercaptan chemical suppression by malodor eliminating materials (GC-PFPD); details: OE material 0.2%, malodor material 10 ppm, room temperature 2 hours, triplicate
Experimental: as §1

[5] = Suppression of methyl mercaptan (Example 12, GC-PFPD); details: test material 0.2%, malodor material 10 ppm, room temperature 2 hours, triplicate
Experimental: as §1, with “100” for “The selected OE materials were tested for propyl, allyl, and furfuryl mercaptan suppression. 100”, “the malodor reducing compound.” for “test flavor materials.”, “test” for “test OE”, “ppmm,” for “ppm,”, “GC-PFPD as described above.” for “GC-PFPD.”

[6] = Methyl mercaptan chemical suppression by Group A and Group B compounds (GC-PFPD); details: test material 200 ppm, malodor material 10 ppm, room temperature 2 hours, ethanol/deionized water
Experimental: 2 μl of 0.5%(w/v) of sodium methoxide in deionized water, 20 μl of 1% (w/v) test malodor eliminating material in ethanol, 80 μl of ethanol, and 900 μl of deionized water were added into a 2 ml GC vial, left to sit at room temperature for 2 hours, and analyzed using Multipurpose sampler-GC-PFPD (Gas Chromatography-Pulsed Flame Photometric Detector) (GC-PFPD)MPS2 (Gerstel)—GC; 6890N (Agilent)—PFPD; model 5380 (OI Analytical). As a control, ethanol was added instead of test malodor eliminating materials. The final concentration of test OE material and malodor material are 200 ppm and 10 ppmm, respectively. Malodor suppression was calculated as follows: Malodor Suppression (%)=(GC area of control sample−GC area of test_sample)/GC area of control sample×100

| Structure (SMILES) | Malodor reduction (%) propyl mercaptan [1] [%] | Malodor reduction (%) furfuryl mercaptan [2] [%] | methyl mercaptan suppression (%) A alone ([3]; Group A level 200 ppm) [%] | Malodor reduction (%) allyl mercaptan [4] [%] | methyl mercaptan suppression (%) [5] [%] | methyl mercaptan suppression (%) [6] [%] | methyl mercaptan suppression (%) A alone ([3]; Group A level 50 ppm, listed as METHYL HEP CARB) | methyl mercaptan suppression (%) A alone ([3]; Group A level 50 ppm) |
| --- | --- | --- | --- | --- | --- | --- | --- | --- |
| CC(=O)/C=C/C1=C(C)CCCC1(C)C [IONONE-BETA, ionone beta] | 27 | 51 | 71 | 37 | 55 | 23 |  |  |
| CCCCCC#CC(=O)OC [METHYL HEPTIN CARE, methyl heptin carbonate] | 44 | 69 |  | 63 | 80 | 92 | 67% and 53% |  |
| C/C=C/C(=O)C1=C(C)C=CCC1(C)C [DAMASCENONE, damascenone] | 49 | 67 |  | 67 | 81 | 100 |  | 28% and 17% |
